From US5354691A, “Polypeptides and derivatives thereof as well as their use in pharmaceutical and diagnostic compositions” (priority 1987, dated 1994)

Key:
[1] = tested on: T-cell clones A2b and A2c; conditions: from European patent application 0 262 710 / EP-A-0 181 364; cited from earlier work
T-cell clone A2b = test: T-cell clone proliferation (3H-thymidine uptake, stimulation index), clone A2b; assay type: cell-based, rat; conditions: polypeptide with sequence homologous to antigen A 180-188
[2] = tested on: T-cell clones A2b and A2c; test: Stimulating activity on T-cell clones A2b and A2c, stated for both clones together; assay type: cell-based, rat

Q: With “proteoglycan protein of cartilage: proteoglycan protein of cartilage (J.Biol.Chem. 261, 3519-3535)” as the substance, how does the “recognition by / response of T-cell clones A2b and A2c” value [1] read?
A: recognized

Q: Which “response of T-cell clone A2b” value (T-cell clone A2b) does the source give for “TFGLQPQDT [antigen from Epstein-Barr virus]” here?
A: responds

Q: For RARLQLELS [lamin A and C], which “response of the T-cell clones A2b and A2c” value [2] is on record?
A: react positively
